This assay addresses T1, Recombinant human H-PGDS (Homo sapiens, UniProt O60760).
T1 construct: made in house; host or cells: E. coli
Kind of assay: H-PGDS inhibitory activity (prostaglandin D2 production from prostaglandin H2, measured by LC-MS/MS). The format is biochemical. The note with it: recombinant human H-PGDS 1.0 nM expressed in E. coli; prostaglandin H2 25 μM; preincubated 15 minutes on ice, reacted on ice for 1 minute; concentration that inhibits prostaglandin D2 production by 50%. The procedure, abridged: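 Recombinant human H-PGDS (E. coli-expressed, 1.0 nM final) preincubated with compound 15 min on ice in 20 mM Tris-HCl pH 8.0, 2 mM MgCl2, 2 mM GSH, 0.5 mg/mL γ-globulin. Reaction with 25 µM PGH2 run 1 min on ice, stopped with FeCl2/citric acid, PGD2 quantified by LC-MS/MS. Activity expressed as % of DMSO control after subtracting non-enzymatic PGD2.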

Molecules are shown by their SMILES.

These results are taken from US20230339937A1, “CONDENSED RING COMPOUNDS THAT INHIBIT H-PGDS” (SATO PHARMACEUTICAL CO., LTD., priority 2020, published 2023).

T1 sequence (O60760 whole entry): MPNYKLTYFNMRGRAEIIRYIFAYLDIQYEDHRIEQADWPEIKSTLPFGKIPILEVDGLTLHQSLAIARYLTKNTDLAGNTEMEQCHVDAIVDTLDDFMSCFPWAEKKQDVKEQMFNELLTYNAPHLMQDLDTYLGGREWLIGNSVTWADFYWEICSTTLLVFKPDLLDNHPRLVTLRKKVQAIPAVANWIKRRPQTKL

On to `CC[C@]1(O)CC[C@@H](NC(=O)c2ccc(-c3nccc4occc34)cc2)CC1` [Example 290, N-(cis-4-ethyl-4-hydroxycyclohexyl)-4-(furo[3,2-c]pyridin-4-yl)benzamide], for which the IC50 came out at 1.3 nM.
As for `O=C(NCC1CCOCC1)c1ccc(-c2nccc3occc23)cc1` [Example 82, 4-(furo[3,2-c]pyridin-4-yl)-N-[(tetrahydro-2H-pyran-4-yl)methyl] benzamide], the concentration for half-maximal inhibition (IC50) was found to be 11 nM.
To `O=C(NC12CCC(O)(CC1)C2)c1ccc(-c2nccc3occc23)cc1` [Example 349, 4-(furo[3,2-c]pyridin-4-yl)-N-(4-hydroxybicyclo[2.2.1]heptan-1 yl)benzamide] belongs 1.5 nM; to `Cc1cnc(-c2ccc(C(=O)N[C@H]3CC[C@H](C(C)(C)O)CC3)cc2)c2ccoc12` [Example 129, N-[trans-4-(2-hydroxypropan-2-yl)cyclohexyl]-4-(7-methylfuro[3,2-c]pyridin-4-yl)benzamide], 2.4 nM.
To `O=C(Nc1ccccc1F)c1ccc(-c2nccc3occc23)cc1` [Example 110, N-(2-fluorophenyl)-4-(furo[3,2-c]pyridin-4-yl)benzamide] belongs 5.7 nM; to `CC(C)(O)CO[C@H]1CC[C@H](NC(=O)c2ccc(-c3nccc4occc34)c(F)c2)CC1` [Example 329, 3-fluoro-4-(furo[3,2-c]pyridin-4-yl)-N-[trans-4-(2-hydroxy-2-methylpropoxy)cyclohexyl]benzamide], 2 nM; to `O=C1CCC(NC(=O)c2ccc(-c3nccc4occc34)cc2)CC1` [Example 303, 4-(furo[3,2-c]pyridin-4-yl)-N-(4-oxocyclohexyl)benzamide], 2.1 nM.
To `O=C(N[C@H]1CCN(c2cccnn2)C1)c1ccc(-c2nccc3occc23)cc1` [Example 230, (S)-4-(furo[3,2-c]pyridin-4-yl)-N-[1-(pyridazin-3-yl)pyrrolidin-3-yl]benzamide] belongs 1.2 nM; to `Cn1nnnc1N1CC[C@H](NC(=O)c2ccc(-c3nccc4occc34)cc2)C1` [Example 231, (S)-4-(furo[3,2-c]pyridin-4-yl)-N-[1-(1-methyl-1H-tetrazol-5-yl)pyrrolidin-3-yl]benzamide], 3.2 nM.
`CN(C)c1ccnc(N2CCC(NC(=O)c3ccc(-c4nccc5occc45)cc3)CC2)n1` [Example 161, N-{1-[4-(dimethylamino)pyrimidin-2-yl]piperidin-4-yl}-4-(furo[3,2-c]pyridin-4-yl)benzamide]: the IC50 came out at 2 nM.
Consider `COCCO[C@H]1CC[C@H](NC(=O)c2ccc(-c3nccc4occc34)cc2)CC1` [Example 311, 4-(furo[3,2-c]pyridin-4-yl)-N-[trans-4-(2-methoxyethoxy)cyclohexyl]benzamide], for which the IC50 came out at 2.5 nM.
Consider `O=C(NCC1COc2ccccc2C1)c1ccc(-c2nccc3occc23)cc1` (centres unmarked) [Example 221, N-(chroman-3-ylmethyl)-4-(furo[3,2-c]pyridin-4-yl)benzamide], for which the IC50 worked out at 4.9 nM.
Turning to `O=C(NC[C@H]1CC[C@@H](O)CC1)c1ccc(-c2nccc3occc23)cc1` [Example 114, 4-(furo[3,2-c]pyridin-4-yl)-N-[(cis-4-hydroxycyclohexyl)methyl]benzamide], the 50% inhibitory concentration (IC50) was 25 nM.
Regarding `O=C(N[C@H]1CC[C@H](C2(O)CC2)CC1)c1ccc(-c2nccc3occc23)cc1` [Example 257, 4-(furo[3,2-c]pyridin-4-yl)-N-[trans-4-(1-hydroxycyclopropyl)cyclohexyl]benzamide], the IC50 was determined as 1.6 nM.
Consider `O=C(N[C@H]1CC[C@H](O)CC1)c1ccc(-c2nccc3[nH]ccc23)cc1` [Example 337, N-(trans-4-hydroxycyclohexyl)-4-(1H-pyrrolo[3,2-c]pyridin-4-yl)benzamide], for which the IC50 is 0.44 nM.
Consider `CC(C)(O)C1CC2(CC(NC(=O)c3ccc(-c4nccc5occc45)cc3)C2)C1` (centres unmarked) [Example 122, 4-(furo[3,2-c]pyridin-4-yl)-N-[6-(2-hydroxypropan-2-yl)spiro[3.3]heptan-2-yl]benzamide], for which the IC50 came to 1.3 nM.
To `O=C(NCc1cccc(Cl)c1)c1ccc(-c2nccc3[nH]ccc23)cc1` [Example 57, N-(3-chlorobenzyl)-4-(1H-pyrrolo[3,2-c]pyridin-4-yl)benzamide] belongs 1.4 nM.
Take `CC(C)(O)CNC(=O)c1ccc(-c2nccc3occc23)cc1` [Example 92, 4-(furo[3,2-c]pyridin-4-yl)-N-(2-hydroxy-2-methylpropyl) benzamide]: the 50% inhibitory concentration (IC50) was determined as 22 nM.
As for `NC(=O)c1cc(N2CCC(NC(=O)c3ccc(-c4nccc5occc45)cc3)CC2)ccn1` [Example 176, 4-{4-[4-(furo[3,2-c]pyridin-4-yl)benzamide]piperidin-1-yl}picolinamide], the IC50 was 1.2 nM.
The figure for `O=C(N[C@H]1CCN(CC(F)(F)F)C1)c1ccc(-c2nccc3occc23)cc1` [Example 199, (S)-4-(furo[3,2-c]pyridin-4-yl)-N-[1-(2,2,2-trifluoroethyl)pyrrolidin-3-yl]benzamide] is 9.7 nM.
Take `O=C(NCc1ccco1)c1ccc(-c2nccc3[nH]ccc23)cc1` [Example 26, N-(furan-2-ylmethyl)-4-(1H-pyrrolo[3,2-c]pyridin-4-yl)benzamide]: the half-inhibitory concentration (IC50) was 1.7 nM.
To `O=C(NCc1cccc(Cl)c1)c1ccc(-c2nccc3occc23)cc1` [Example 69, N-(3-chlorobenzyl)-4-(furo[3,2-c]pyridin-4-yl)benzamide] belongs 6 nM; to `Cc1cccnc1N1CCC(NC(=O)c2ccc(-c3nccc4occc34)cc2)CC1` [Example 153, 4-(furo[3,2-c]pyridin-4-yl)-N-[1-(3-methylpyridin-2-yl)piperidin-4-yl]benzamide], 4.1 nM; to `O=C(NC1CCN(c2nccc(=O)[nH]2)CC1)c1ccc(-c2nccc3occc23)cc1` [Example 179, 4-(furo[3,2-c]pyridin-4-yl)-N-[1-(6-oxo-1,6-dihydropyrimidin-2-yl)piperidin-4-yl]benzamide], 0.97 nM.
To `CC(C)(O)[C@H]1CC[C@H](NC(=O)c2ccc(-c3nc(CO)cc4occc34)c(F)c2)CC1` [Example 322, 3-fluoro-4-[6-(hydroxymethyl)furo[3,2-c]pyridin-4-yl]-N-[trans-4-(2-hydroxypropan-2-yl)cyclohexyl]benzamide] belongs 3.2 nM.
To `O=C(NCc1cccnc1)c1ccc(-c2nccc3occc23)cc1` [Example 77, 4-(furo[3,2-c]pyridin-4-yl)-N-(pyridin-3-ylmethyl) benzamide] belongs 24 nM; to `CO[C@H]1CCC[C@@H](NC(=O)c2ccc(-c3nccc4occc34)cc2)C1` (relative stereo) [Example 275, 4-(furo[3,2-c]pyridin-4-yl)-N-(cis-3-methoxycyclohexyl)benzamide], 1.8 nM; to `O=C(NC1CC2(C1)CN(c1ncccn1)C2)c1ccc(-c2nccc3occc23)cc1` [Example 210, 4-(furo[3,2-c]pyridin-4-yl)-N-[2-(pyrimidin-2-yl)-2-azaspiro[3.3]heptan-6-yl]benzamide], 3.5 nM.
Take `Cn1cnc(CO)c1N1CCC(NC(=O)c2ccc(-c3nccc4occc34)cc2)CC1` [Example 253, 4-(furo[3,2-c]pyridin-4-yl)-N-{1-[4-(hydroxymethyl)-1-methyl-1H-imidazol-5-yl]piperidin-4-yl}benzamide]: the half-maximal inhibitory concentration (IC50) was determined as 1.1 nM.
`C[C@]1(O)CC[C@@H](NC(=O)c2ccc(-c3nccc4occc34)cc2)CC1` [Example 283, 4-(furo[3,2-c]pyridin-4-yl)-N-(cis-4-hydroxy-4-methylcyclohexyl)benzamide]: the IC50 is 1.7 nM.
Take `O=C(NC1CCN(c2ccc(Cl)nn2)CC1)c1ccc(-c2nccc3occc23)cc1` [Example 148, N-[1-(6-chloropyridazin-3-yl)piperidin-4-yl]-4-(furo[3,2-c]pyridin-4-yl)benzamide]: the half-inhibitory concentration (IC50) turned out to be 1.8 nM.
As to `O=C(NCC1CC1)c1ccc(-c2nccc3[nH]ccc23)cc1` [Example 18, N-(cyclopropyl-methyl)-4-(1H-pyrrolo[3,2-c]pyridin-4-yl)benzamide], the 50% inhibitory concentration (IC50) turned out to be 1 nM.
The figure for `Cc1cc(CNC(=O)c2ccc(-c3nccc4[nH]ccc34)cc2)[nH]n1` [Example 49, N-[(3-methyl-1H-pyrazol-5-yl)methyl]-4-(1H-pyrrolo[3,2-c]pyridin-4-yl)benzamide] is 1.2 nM; for `O=C(NC1CCN(c2nccs2)CC1)c1ccc(-c2nccc3occc23)cc1` [Example 101, 4-(furo[3,2-c]pyridin-4-yl)-N-[1-(thiazol-2-yl)piperidin-4-yl]benzamide] it is 1 nM; for `CC(C)(O)C(=O)N1CCC(NC(=O)c2ccc(-c3nccc4occc34)cc2)CC1` [Example 245, 4-(furo[3,2-c]pyridin-4-yl)-N-[1-(2-hydroxy-2-methylpropanoyl)piperidin-4-yl]benzamide] it is 1.4 nM.
To `O=C(N[C@H]1CC[C@H](NC2COC2)CC1)c1ccc(-c2nccc3occc23)cc1` [Example 295, 4-(furo[3,2-c]pyridin-4-yl)-N-[trans-4-(oxetan-3-ylamino)cyclohexyl]benzamide] belongs 2.1 nM; to `O=C(N[C@H]1CC[C@H](C(O)C(F)(F)F)CC1)c1ccc(-c2nccc3occc23)cc1` (stereo partly drawn) [Example 309, 4-(furo[3,2-c]pyridin-4-yl)-N-[trans-4-(2,2,2-trifluoro-1-hydroxyethyl)cyclohexyl]benzamide], 1.9 nM; to `CC(C)(O)c1cnc(N2CC[C@H](NC(=O)c3ccc(-c4nccc5occc45)cc3)C2)nc1` [Example 200, (S)-4-(furo[3,2-c]pyridin-4-yl)-N-{1-[5-(2-hydroxypropan-2-yl)pyrimidin-2-yl]pyrrolidin-3-yl}benzamide], 1.1 nM.

A word on the IC50: it is the concentration at which inhibition is half-maximal.
